Results published in US20070117743A1, “New antitumoral compounds” (priority 2003, published 2007).
Read-outs that look alike come from different tables or passages of the source. *1 amine or outer side, *2 acyl side, *3 side chain or, on linkers, in order; H or OH if unused. Where a SMILES comes first, the peptide text is derived from it. Bridges are numbered along the chain shown (N, C = ends). [ ]: non-standard residue; d: D form. The star is where a group is joined. X3 = CN(C)C(=NCCC[C@H](N[*:1])C(=O)[*:2])N(C)c1ccccc1; X2 = CN(C)C(=NCCC[C@H](N[*:1])C(=O)[*:2])N1CCCC1; X1 = CN(C)C(=NCCC[C@H](N[*:1])C(=O)[*:2])N(C)C; d(aIle) = CC[C@H](C)[C@@H](N)C(=O)O; d(aThr) = C[C@@H](O)[C@@H](N)C(=O)O; Hexanoyl(5-Me) = CC(C)CCCC(=O)*; Dhb = C/C=C(\N)C(=O)O

Key:
A-549 = experiment: SRB colorimetric assay of cell growth and viability, A-549; format: cell-based, human; details: 48 hours exposure; for GI50: read-out: GI50 A-549; for CC50: read-out: LC50 A-549
From the text: (§1) The finality of this assay is to interrupt the growth of a “in vitro” tumor cell culture by means a continued exhibition of the cells to the sample to be testing.
(§2) This form of the assay employs 96 well cell culture microplates of 9 mm diameter (Faircloth, 1988; Mosmann, 1983). Most of the cell lines are obtained from American Type Culture Collection (ATCC) derived from different human cancer types.
(§3) Cells are maintained in RPMI 1640 10% FBS, supplemented with 0.1 g/l penicillin and 0.1 g/l streptomycin sulfate and then incubated at 37° C., 5% CO2 and 98% humidity. For the experiments, cells were harvested from subconfluent cultures using trypsin and resuspended in fresh medium before plating.
(§4) Cells are seeded in 96 well microtiter plates, at 5×10^3 cells per well in aliquots of 195 μL medium, and they are allowed to attach to the plate surface by growing in drug free medium for 18 hours. Afterward, samples are added in aliquots of 5 μL in a ranging from 10 to 10^−8 μg/mL, dissolved in DMSO:EtOH:PBS (0.5:0.5:99). After 48 hours exposure, the antitumor effect are measured by the SRB methodology: cells are fixed by adding 50 μL of cold 50% (wt/vol) trichloroacetic acid (TCA) and incubating for 60 minutes at 4° C. Plates are washed with deionized water and dried. One hundred μL of SRB solution (0.4% wt/vol in 1% acetic acid) is added to each microtiter well and incubated for 10 minutes at room temperature. Unbound SRB is removed by washing with 1% acetic acid. Plates are air dried and bound stain is solubilized with Tris buffer. Optical densities are read on a automated spectrophotometric plate reader at a single wavelength of 490 nm.
(§5) The values for mean+/− SD of data from triplicate wells are calculated. Some parameters for cellular responses can be calculated: GI=growth inhibition, TGI=total growth inhibition (cytostatic effect) and LC=cell killing (cytotoxic effect).

HT-29 = experiment: SRB colorimetric assay of cell growth and viability, HT-29; format: cell-based, human; details: 48 hours exposure; for GI50: read-out: GI50 HT-29; for CC50: read-out: LC50 HT-29
From the text: as §1, §2, §3, §4, §5

## C/C=C1\NC(=O)[C@H](Cc2ccccc2)NC(=O)[C@@H](C(C)C)NC(=O)[C@@H]([C@@H](C)CC)NC(=O)[C@H](NC(=O)[C@H](NC(=O)[C@H](CCCN)NC(=O)[C@H]2CCCN2C(=O)[C@H](NC(=O)[C@@H](NC(=O)[C@@H](NC(=O)[C@H](NC(=O)c2ccc3c(c2)OCO3)C(C)C)[C@@H](C)O)C(C)C)C(C)C)[C@@H](C)CC)[C@@H](C)OC(=O)[C@H](C(C)C)NC1=O [Compound 23, [Pipe^14]-KF]
A-549
  TGI A-549: 1.98E−06 Molar
  GI50: 661 nM
  CC50: 4620 nM
HT-29
  TGI HT-29: 3.30E−07 Molar
  GI50: 132 nM
  CC50: 528 nM

## C/C=C1\NC(=O)[C@H](Cc2ccccc2)NC(=O)[C@@H](C(C)C)NC(=O)[C@@H]([C@@H](C)CC)NC(=O)[C@H](NC(=O)[C@H](NC(=O)[C@H](CCCN=C(N(C)C)N(C)C)NC(=O)[C@H]2CCCN2C(=O)[C@H](NC(=O)[C@@H](NC(=O)[C@@H](NC(=O)[C@H](NC(=O)CCCC(C)C)C(C)C)[C@@H](C)O)C(C)C)C(C)C)[C@@H](C)CC)[C@@H](C)OC(=O)[C@H](C(C)C)NC1=O [Compound 89, [N(Me)2,N′(Me)2-Arg^8]-Kahalalide F] ({Hexanoyl(5-Me)}-[dV]TV[dV][dP][X1][d(aIle)][d(aThr)][d(aIle)][dV]F[Dhb]V; ester 8-C)
A-549; SRB
  TGI A-549: 4.44E−07 Molar
  GI50: 317 nM
  CC50: 635 nM
HT-29; SRB
  TGI HT-29: 3.17E−07 Molar
  GI50: 63.5 nM
  CC50: 571 nM

## C/C=C1\NC(=O)[C@H](Cc2ccccc2)NC(=O)[C@@H](C(C)C)NC(=O)[C@@H]([C@@H](C)CC)NC(=O)[C@H](NC(=O)[C@H](NC(=O)[C@H](CCCN=C(N(C)C)N(C)c2ccccc2)NC(=O)[C@H]2CCCN2C(=O)[C@H](NC(=O)[C@@H](NC(=O)[C@@H](NC(=O)[C@H](NC(=O)CCCC(C)C)C(C)C)[C@@H](C)O)C(C)C)C(C)C)[C@@H](C)CC)[C@@H](C)OC(=O)[C@H](C(C)C)NC1=O [Compound 90, [N(Me,Ph),N′(ME)2-Arg^8]-Kahalalide F] ({Hexanoyl(5-Me)}-[dV]TV[dV][dP][X3][d(aIle)][d(aThr)][d(aIle)][dV]F[Dhb]V; ester 8-C)
A-549; SRB
  TGI A-549: 4.27E−07 Molar
HT-29; SRB
  TGI HT-29: 3.05E−07 Molar

## C/C=C1\NC(=O)[C@H](Cc2ccccc2)NC(=O)[C@@H](C(C)C)NC(=O)[C@@H]([C@@H](C)CC)NC(=O)[C@H](NC(=O)[C@H](NC(=O)[C@H](CCCN=C(N(C)C)N2CCCC2)NC(=O)[C@H]2CCCN2C(=O)[C@H](NC(=O)[C@@H](NC(=O)[C@@H](NC(=O)[C@H](NC(=O)CCCC(C)C)C(C)C)[C@@H](C)O)C(C)C)C(C)C)[C@@H](C)CC)[C@@H](C)OC(=O)[C@H](C(C)C)NC1=O [Compound 91, [N(CH2)4,N′(Me)2-Arg^8]-Kahalalide F] ({Hexanoyl(5-Me)}-[dV]TV[dV][dP][X2][d(aIle)][d(aThr)][d(aIle)][dV]F[Dhb]V; ester 8-C)
A-549; SRB
  TGI A-549: 4.37E−07 Molar
  GI50: 312 nM
  CC50: 624 nM
HT-29; SRB
  TGI HT-29: 3.12E−07 Molar
  GI50: 62.4 nM
  CC50: 562 nM
